Experiment [1] deals with T1, PKCδ (Mus musculus, UniProt P28867).
T1 construct: endogenous in cells; host or cells: mouse bone-marrow-derived dendritic cells (BMDCs) from WT mice
Put plainly: CARD9 immunoprecipitation and western blot for pS104-CARD9 in BMDCs stimulated with HKCA. To be noted: 10 uM, added 1 h before stimulation; BMDCs from WT mice stimulated with HKCA (MOI 1:10). It counts as cell-based. The protocol: FIGS. 3A-3H provide graphs and pictures showing that CARD9 R101 functions as a signaling switch activated by S104 phosphorylation. FIG. 3A, BMDCs expressing Cas9 were transduced with guides for the corresponding genes on day 2 and selected with puromycin. On day 9 cells were stimulated with 100 ug/ml WGP O/N and IL-6 levels in supernatant were measured with ELISA. FIG. 3B, BMDCs expressing Cas9 were transduced with guides for the corresponding genes on day 2 and selected with puromycin. On day 9 cells were stimulated with HKCA (MOI 1:10), HKTR (1:10) or LPS (10 ng/ml) for 30 min. p65 nuclear translocation was measured using fluorescence imaging. The bars in the graph are shown in groups of 6 (from left to right, EGFP, EGFP, PAK2, PAK2, PKCd, PKCd) for each different condition (i.e., untreated, HKCA, HKTR, LPS). FIG. 3C, CARD9 FL, CARD9 R101C or CARD9 S104N were overexpressed in HEK 293T cells. […] Samples were analyzed by WB with the indicated antibodies. […] Samples were analyzed by WB with the indicated antibodies. FIG. 3F, Normalized fluorescence polarization representing filament formation between different CARD9 2-152 variants and Bcl10, average of quadruplicates. […] FIG. 3H, Expression of CARD9 in the lysates from panel g determined by western blot (WB) with the indicated antibodies. […]

Experiment [2] concerns phosphorylated S104 (pS104) of CARD9, peptides pS104, pS104/R101C, S104. Description: ELISA of hybridoma clones against CARD9 peptides (antibody specificity). Type of experiment: binding. To be noted: pS104 in the context of either R101 or C101. An excerpt:
FIGS. 9A-9J provide schematics, pictures, a table, graphs showing that CARD9 activation through S104 phosphorylation is impaired by the R101C variant implicated in fungal disease. FIG. 9A, schematic representation of CRISPR KI into CARD9 allele to obtain endogenous CARD9 R101C mutation. Figure discloses SEQ ID NOS 69-71, respectively, in order of appearance. FIG. 9B, representative sequencing result highlighting the presence of mutated base pair (arrow). Figure discloses SEQ ID NOS 72-74, respectively, in order of appearance. FIG. 9C, WB from BMDCs isolated from WT or CARD9 R101C mutant mice. FIG. 9D, WB from splenic CD11c positive cells isolated from WT or CARD9 R101C mutant mice. FIG. 9E, table summarizing hybridoma screening results for binding affinity of different phospho-S104 specific antibodies. ELISA results are shown as values of absorbance at 490 nm, representing antibody reactivity towards either pS104, or pS104/R101C, or S104 peptides. Antibody used in the study is row 6 (i.e., 4F9.H5). FIG. 9F, IL-6 concentration in supernatants from BMDCs from WT, CARD9−/− or CARD9R101C mutant treated with indicated concentrations of WGP, HKCA, HKTR or LPS (10 ng/ml) for 24h. (n=3 mice per condition). […]

T1 sequence (P28867 whole entry): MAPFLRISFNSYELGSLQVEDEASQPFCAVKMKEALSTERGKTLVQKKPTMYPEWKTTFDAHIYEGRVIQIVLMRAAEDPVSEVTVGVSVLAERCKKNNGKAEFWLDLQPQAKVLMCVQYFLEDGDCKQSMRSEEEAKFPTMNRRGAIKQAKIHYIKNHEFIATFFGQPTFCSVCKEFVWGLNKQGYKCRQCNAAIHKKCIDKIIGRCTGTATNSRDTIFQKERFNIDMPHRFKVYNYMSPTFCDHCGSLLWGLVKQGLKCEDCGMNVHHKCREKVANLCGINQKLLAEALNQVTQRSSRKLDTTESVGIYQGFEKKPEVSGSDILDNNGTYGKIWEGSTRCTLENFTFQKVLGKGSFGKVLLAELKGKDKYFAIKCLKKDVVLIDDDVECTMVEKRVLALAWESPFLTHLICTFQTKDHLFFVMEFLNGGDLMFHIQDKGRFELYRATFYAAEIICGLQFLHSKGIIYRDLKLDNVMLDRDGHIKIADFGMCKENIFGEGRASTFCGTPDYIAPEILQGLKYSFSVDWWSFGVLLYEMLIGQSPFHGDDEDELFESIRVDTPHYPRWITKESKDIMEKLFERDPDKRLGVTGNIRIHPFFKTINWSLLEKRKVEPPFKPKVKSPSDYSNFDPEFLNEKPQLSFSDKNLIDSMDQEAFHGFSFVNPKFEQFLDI

For `CN1CCN(c2nc(C3=C(c4c[nH]c5ccccc45)C(=O)NC3=O)c3ccccc3n2)CC1` [Sotrastaurin], the “CARD9 S104 phosphorylation” value in experiment [1] was “inhibition of CARD9 S104 phosphorylation”.

B1: phospho-specific CARD9 S104 antibody: mouse monoclonal IgG1 antibody to phosphorylated S104 of CARD9; clone 4F9.H5 used in the study; VH/VL in Table 1 (antibody, V domains shown)
VH: EVQLQQSGPELVKPGASMKMSCKASGYSFTGQTMHWVKQTHGKNLEWIGLINPYNGGTKYNQIFTGKATLTVDKSSSSAYMELLSLTSEDSAVYFCAIWDYVLDYWGQGTSVTVSSAKTTPPSVYPLAPGSAAQTNSMVTLGCLVK
VL: DVVMTQTPLSLPVSLGDQASISCRSSQSLLHSNGKTYLHWYLQKPGQSPKLLIYKVSNRFSGVPDRFSGSGSGTDFTLKISRVEAEDLGVYFCSQSTHIPPTFGGGTKLEIKRADAAPTVSIFPPSSEQLTSGGASVVCF
On to B1, for which the “recognition of S104 phosphorylation (antibody specificity by ELISA against different peptides)” value in experiment [2] is listed as “recognizes S104 phosphorylation independently of R101”.

The record behind these values is patent publication US20260158139A1, “CARD9 VARIANT POLYPEPTIDE AND ANTIBODIES DIRECTED THERETO” (The Broad Institute, Inc., priority 2023, published 2026).
